Measurements reported in paper PMC5461540, “MOB1 Mediated Phospho-recognition in the Core Mammalian Hippo Pathway” (Molecular & Cellular Proteomics : MCP, 2017).
Substitutions are numbered along the chain they refer to. Like-named read-outs stand apart in the source and are kept apart here. Where a SMILES comes first, the peptide text is derived from it.

Assays:
MOB1A = biological target: T1, MOB1A (Homo sapiens, UniProt Q9H8S9); test: Fluorescence polarization peptide binding assay, MOB1A wild-type; conditions: FP, 20 nM FITC labeled peptide, pH 7.5
T1 construct: MOB1A (2–216, NP_060691); 6xHis (N, cleaved yes); GST (N, cleaved yes); made in house; host or cells: E. coli BL21 (DE3) CodonPlus RIL
T1 sequence (Q9H8S9 2-216): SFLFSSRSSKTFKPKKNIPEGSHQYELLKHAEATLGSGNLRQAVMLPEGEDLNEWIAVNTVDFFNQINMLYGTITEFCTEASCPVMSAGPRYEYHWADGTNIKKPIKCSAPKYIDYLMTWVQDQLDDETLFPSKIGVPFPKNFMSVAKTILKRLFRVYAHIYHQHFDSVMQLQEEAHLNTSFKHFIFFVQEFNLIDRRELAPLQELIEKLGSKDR
Text: (§1) Human MST1 kinase domain (amino acids 2–326, corresponding to NCBI RefSeq protein NP_006273), MST2 kinase domain (2–322, NP_006272), MOB1B (2–216, NP_001231695), MOB1A (2–216, NP_060691) wild-type and indicated MOB1A mutant proteins, MOB2 (2–237, NP_001165694), MOB3A (2–217, NP_570719), MOB3B (2–216, NP_079037), MOB3C (2–216, NP_660322), MOB4 (2–225, NP_056202), MOB4^RRR→AAA (2–225), and yeast Mob1 (79–314, NP_012160) were expressed in E. coli BL21 (DE3) CodonPlus RIL cells as N-terminal dual 6xhistidine (HIS) and glutathione S-transferase (GST), Tobacco Etch Virus (TEV) cleavable, fusion proteins using a modified pETM-30 vector. MOB wild-type and mutants were purified in batch on glutathione-Sepharose resin (GE Healthcare, Uppsala, Sweden) and eluted by cleavage from the affinity tags with HIS tagged TEV protease. TEV protease was removed from the eluted protein by subtractive immobilized-metal affinity chromatography. Cleaved protein was then concentrated and buffer exchanged by size exclusion chromatography (SEC) using a Superdex 75 120 ml column (GE Healthcare). For GST pull-downs and Far-Western analysis, the TEV cleavage step was omitted.
MST1 phosphopeptides encompassing pT353 and pT367 (15-mers) used for crystallization and FITC labeled nonphosphorylated and phosphorylated MST1 T353 peptides, T367 peptides, T329-T340 peptides, T380-T387 peptides and optimized Nud1-like peptides for fluorescence polarization binding experiments were purchased from Biomatik (Cambridge, ON). Peptide sequences used for crystallization studies are: T353, […](p)TMIEH and T367, […](p)TMVINA. All peptides used for biophysical studies are listed in supplemental Table S1.
Twelve-point fluorescence polarization binding measurements were performed in triplicate in 384-well plate format using an Analyst HT (Artisan-Scientific, Sunnyvale, CA) reader. Each 20 μl measurement condition contained 20 nM FITC labeled MST1 peptide or Nud1-like peptide and the indicated concentration of MOB proteins in 25 mM HEPES pH 7.5, 150 mM NaCl, 2 mM DTT, and 1 mg/ml bovine serum albumin (BSA). Kd values were obtained by fitting the results to a one site-specific binding model using GraphPad Prism.

MOB1A KRR→3A mutant = biological target: T2, MOB1A KRR→3A mutant (Homo sapiens, UniProt Q9H8S9, K153A/R154A/R157A); test: Fluorescence polarization peptide binding assay, MOB1A KRR→3A mutant (K153, R154, R157 to alanine); conditions: Fig. 2B, MOB1A KRR→3A (K153, R154, R157 to alanine); FP, 20 nM FITC labeled peptide, pH 7.5; n = 3; N.D. = Kd could not be determined
T2 construct: MOB1A (2–216, NP_060691) wild-type and indicated MOB1A mutant proteins; 6xHis (N, cleaved yes); GST (N, cleaved yes); made in house; host or cells: E. coli BL21 (DE3) CodonPlus RIL
T2 sequence (Q9H8S9 2-216 K153A/R154A/R157A): T1 sequence (Q9H8S9 2-216) with K152A, R153A, R156A
Text: as §1, with “TEV protease was removed from the eluted protein by subtractive immobilized-metal affinity chromatography. Cleaved protein was then concentrated and buffer exchanged by size exclusion chromatography (SEC) using a Superdex 75 120 ml column (GE Healthcare). For GST pull-downs and Far-Western analysis, the TEV cleavage step was omitted.” left out
(§2) MST1 phosphopeptides encompassing pT353 and pT367 (15-mers) used for crystallization and FITC labeled nonphosphorylated and phosphorylated MST1 T353 peptides, T367 peptides, T329-T340 peptides, T380-T387 peptides and optimized Nud1-like peptides for fluorescence polarization binding experiments were purchased from Biomatik (Cambridge, ON). […]
(§3) Twelve-point fluorescence polarization binding measurements were performed in triplicate in 384-well plate format using an Analyst HT (Artisan-Scientific, Sunnyvale, CA) reader. […]

MOB3A = biological target: T3, MOB3A (Homo sapiens, UniProt Q96BX8); test: Fluorescence polarization peptide binding assay, MOB3A; conditions: Fig. 5A, FP, 20 nM FITC labeled peptide, pH 7.5, mean ± S.E. (n = 3), read-out: Kd, μM (to MST1 pT367 peptide)
T3 construct: MOB3A (2–217, NP_570719); 6xHis (N, cleaved yes); GST (N, cleaved yes); made in house; host or cells: E. coli BL21 (DE3) CodonPlus RIL
T3 sequence (Q96BX8 2-217): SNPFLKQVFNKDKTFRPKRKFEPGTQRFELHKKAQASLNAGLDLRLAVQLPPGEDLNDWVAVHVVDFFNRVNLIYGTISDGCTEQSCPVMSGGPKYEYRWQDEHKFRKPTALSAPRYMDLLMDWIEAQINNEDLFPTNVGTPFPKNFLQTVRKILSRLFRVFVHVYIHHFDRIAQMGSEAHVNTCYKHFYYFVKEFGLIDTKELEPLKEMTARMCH
Text: as §1, with “TEV protease was removed from the eluted protein by subtractive immobilized-metal affinity chromatography. Cleaved protein was then concentrated and buffer exchanged by size exclusion chromatography (SEC) using a Superdex 75 120 ml column (GE Healthcare). For GST pull-downs and Far-Western analysis, the TEV cleavage step was omitted.” left out
as §2, §3

MOB3B = biological target: T4, MOB3B (Homo sapiens, UniProt Q86TA1); test: Fluorescence polarization peptide binding assay, MOB3B; conditions: Fig. 5A, FP, 20 nM FITC labeled peptide, pH 7.5, mean ± S.E. (n = 3), read-out: Kd, μM (to MST1 pT367 peptide)
T4 construct: MOB3B (2–216, NP_079037); 6xHis (N, cleaved yes); GST (N, cleaved yes); made in house; host or cells: E. coli BL21 (DE3) CodonPlus RIL
T4 sequence (Q86TA1 2-216): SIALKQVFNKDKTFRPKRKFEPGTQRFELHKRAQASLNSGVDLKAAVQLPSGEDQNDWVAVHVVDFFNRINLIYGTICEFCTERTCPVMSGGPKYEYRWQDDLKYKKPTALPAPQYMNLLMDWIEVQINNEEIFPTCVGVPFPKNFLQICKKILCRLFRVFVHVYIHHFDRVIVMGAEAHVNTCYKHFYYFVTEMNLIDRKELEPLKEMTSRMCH
Text: as §1, with “TEV protease was removed from the eluted protein by subtractive immobilized-metal affinity chromatography. Cleaved protein was then concentrated and buffer exchanged by size exclusion chromatography (SEC) using a Superdex 75 120 ml column (GE Healthcare). For GST pull-downs and Far-Western analysis, the TEV cleavage step was omitted.” left out
as §2, §3

MOB3C = biological target: T5, MOB3C (Homo sapiens, UniProt Q70IA8); test: Fluorescence polarization peptide binding assay, MOB3C; conditions: Fig. 5A, FP, 20 nM FITC labeled peptide, pH 7.5, mean ± S.E. (n = 3), read-out: Kd, μM (to MST1 pT367 peptide)
T5 construct: MOB3C (2–216, NP_660322); 6xHis (N, cleaved yes); GST (N, cleaved yes); made in house; host or cells: E. coli BL21 (DE3) CodonPlus RIL
T5 sequence (Q70IA8 2-216): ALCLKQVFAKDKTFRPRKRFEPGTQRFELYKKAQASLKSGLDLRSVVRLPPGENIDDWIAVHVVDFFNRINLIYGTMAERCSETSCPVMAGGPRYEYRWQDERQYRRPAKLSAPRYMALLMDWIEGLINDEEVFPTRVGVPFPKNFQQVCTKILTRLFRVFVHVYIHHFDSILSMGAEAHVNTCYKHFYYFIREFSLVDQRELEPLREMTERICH
Text: as §1, with “TEV protease was removed from the eluted protein by subtractive immobilized-metal affinity chromatography. Cleaved protein was then concentrated and buffer exchanged by size exclusion chromatography (SEC) using a Superdex 75 120 ml column (GE Healthcare). For GST pull-downs and Far-Western analysis, the TEV cleavage step was omitted.” left out
as §2, §3

MOB4 = biological target: T6, MOB4 (Homo sapiens, UniProt Q9Y3A3); test: Fluorescence polarization peptide binding assay, MOB4; conditions: Fig. 5A, FP, 20 nM FITC labeled peptide, pH 7.5, mean ± S.E. (n = 3), read-out: Kd, μM (to MST1 pT367 peptide)
T6 construct: MOB4 (2–225, NP_056202); 6xHis (N, cleaved yes); GST (N, cleaved yes); made in house; host or cells: E. coli BL21 (DE3) CodonPlus RIL
T6 sequence (Q9Y3A3 2-225): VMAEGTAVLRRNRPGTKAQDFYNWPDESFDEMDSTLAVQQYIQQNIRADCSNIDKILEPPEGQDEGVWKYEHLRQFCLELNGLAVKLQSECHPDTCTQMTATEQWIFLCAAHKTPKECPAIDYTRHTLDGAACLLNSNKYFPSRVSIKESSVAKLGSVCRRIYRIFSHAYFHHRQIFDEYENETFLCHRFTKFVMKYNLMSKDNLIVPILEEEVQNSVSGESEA
Text: as §1, with “TEV protease was removed from the eluted protein by subtractive immobilized-metal affinity chromatography. Cleaved protein was then concentrated and buffer exchanged by size exclusion chromatography (SEC) using a Superdex 75 120 ml column (GE Healthcare). For GST pull-downs and Far-Western analysis, the TEV cleavage step was omitted.” left out
as §2, §3

Kd (MOB1A; recombinant wild-type MOB1A, read-out: Kd): 0.68 µM
Kd (MOB1A; Fig. 5A, MOB1A, mean ± S.E. (n = 3), read-out: Kd, μM (to MST1 pT367 peptide)): 0.67 ± 0.09 µM
Kd (MOB1A KRR→3A mutant): no measurable binding
Kd (MOB3A): 2 to 3 µM
Kd (MOB3B): 2 to 3 µM
Kd (MOB3C): 2 to 3 µM
Kd (MOB4): 12.2 µM
SMILES: CC[C@H](C)[C@H](NC(=O)[C@@H](NC(=O)[C@H](CCSC)NC(=O)[C@@H](NC(=O)CNC(=O)[C@H](CC(C)C)NC(=O)[C@H](CCC(N)=O)NC(=O)[C@H](CO)NC(=O)[C@@H]1CCCN1C(=O)[C@H](CC(C)C)NC(=O)[C@@H](NC(=O)[C@H](CC(=O)O)NC(=O)[C@@H](N)CC(=O)O)[C@@H](C)O)[C@@H](C)OP(=O)(O)O)C(C)C)C(=O)N[C@@H](CC(N)=O)C(=O)N[C@@H](C)C(=O)O [pT367] (HELM PEPTIDE1{D.D.T.L.P.S.Q.L.G.[C[C@@H](OP(=O)(O)O)[C@H](N[*:1])C(=O)[*:2]].M.V.I.N.A}$$$$V2.0)
